These results are taken from US12103919B2, “3-(5-oxy)-1-oxoisoindolin-2-yl)piperidine-2,6-dione derivatives and uses thereof” (NOVARTIS AG, priority 2021, dated 2024).

This experiment has as its target T1, WIZ (Homo sapiens, UniProt O95785+Q96SW2).
T1 construct: expressed in transfected cells
The experiment in a line: Quantification of WIZ protein levels in HiBit tag fusion protein assay (293T cells). The format is cell-based. Further details: Dmax: dose or concentration left out as unconfirmed. As to the method:
The HiBit system from Promega was used to develop high-throughput and quantitative assays to measure changes in WIZ protein levels in response to compounds. The HiBit tag was derived from a split Nanoluciferase and has the following protein sequence: […] (SEQ ID NO: 1). The complementary fragment of Nanoluciferase (known as LgBit, from Promega), was added to the HiBit tag to form an active Nanoluciferase enzyme whose activity can be precisely measured. In this way, the levels of a fusion protein with the HiBit tag can be quantified in cell lysates.
Lentiviral vectors, based on the Invitrogen™ pLenti6.2/V5 DEST backbone were constructed that places the HiBit tag upstream of WIZ and expressed the fusion protein from an HSVTK promotor.
To ensure moderate and consistent expression of the HiBit-WIZ fusion protein across all cells in the population, stable cell lines were constructed from cells harboring a single copy of the construct. Lentivirus packaged with the constructs were made using the ViraPowerTMkit from Invitrogen™. 293T cells from ATCC (Catalog number: CRL-3216), were infected with the virus at low multiplicity of infection and selected by 5 μg/mL blasticidin in culture media for 2 weeks.
The levels of HiBit-WIZ tagged fusion proteins in compound-treated cell lines were measured as follows:
On day 1, cells were diluted to 1.0×10^6 cells/ml in normal growth medium. 20 μL of cell suspension were plated in each well of a solid white 384-well plate. Plates were incubated overnight in a 37° C. and 5% CO2 humidified tissue culture incubator.
On day 2, serial dilutions of compounds were made in 384-well plates. Compound plates were set up with DMSO in columns 1, 2, 23, 24, and 10-point compound dilution series in column 3-12 and column 13-22. 10 mM stock solution of compound were placed into column 3 or 13 and a 1:5 serial dilution was carried out until there was a 10-point dilution series per compound. 50 nL of diluted compounds were transferred into the plated cells by Echo® (Labcyte) acoustic transfer. The highest concentration of compound was 25 μM. Plates were incubated overnight (about 18 hours) in a 37° C. and 5% CO2 humidified tissue culture incubator.
On day 3, plates were removed from the incubator and allowed to equilibrate at room temperature for 60 minutes. HiBit substrate (Nano-Glo® HiBit Lytic Detection System, Promega Catalogue number: N3050) was added as described by the manufacturers protocols. Plates were incubated at room temperature for 30 minutes and luminescence was read using an EnVision® reader (PerkinElmer®). Data was analyzed and visualized using the Spotfire® software package.
WIZ Amax reflects the DMSO-normalized, curve-fitted percentage of WIZ-HiBit remaining at 25 uM. It was calculated by normalizing DMSO controls to 100%, parametric curve fitting of the dose response data (10-point, 5-fold), followed by calculation of response at 25 uM using the fitted equation.
A general note: HiBiT is a short tag that completes a luciferase, so light tracks the accessible tagged protein.

[1] abbreviates: HEK-293T; DMSO-normalized, curve-fitted percentage of WIZ-HiBit remaining at 25 uM; read-out: WIZ Amax.
[2] abbreviates: HEK-293T; at 25 uM, 100 − Amax; read-out: % degradation of WIZ (100 − Amax).
[3] abbreviates: WIZ HiBit assay in 293T cells, about 18 hours, 10-point 5-fold dilution, top 25 μM; read-out: WIZ AC50.
The mark [4] stands for this setting: HEK-293T, read-out: % degradation of WIZ (100 − Amax).
Setting [5] is: read-out: WIZ AC50; WIZ HiBit assay in 293T cells, about 18 hours, 10-point 5-fold dilution, top 25 μM.

SMILES strings stand for the structures. Read-outs that look alike come from different tables or passages of the source.

T1 sequence (O95785 whole entry): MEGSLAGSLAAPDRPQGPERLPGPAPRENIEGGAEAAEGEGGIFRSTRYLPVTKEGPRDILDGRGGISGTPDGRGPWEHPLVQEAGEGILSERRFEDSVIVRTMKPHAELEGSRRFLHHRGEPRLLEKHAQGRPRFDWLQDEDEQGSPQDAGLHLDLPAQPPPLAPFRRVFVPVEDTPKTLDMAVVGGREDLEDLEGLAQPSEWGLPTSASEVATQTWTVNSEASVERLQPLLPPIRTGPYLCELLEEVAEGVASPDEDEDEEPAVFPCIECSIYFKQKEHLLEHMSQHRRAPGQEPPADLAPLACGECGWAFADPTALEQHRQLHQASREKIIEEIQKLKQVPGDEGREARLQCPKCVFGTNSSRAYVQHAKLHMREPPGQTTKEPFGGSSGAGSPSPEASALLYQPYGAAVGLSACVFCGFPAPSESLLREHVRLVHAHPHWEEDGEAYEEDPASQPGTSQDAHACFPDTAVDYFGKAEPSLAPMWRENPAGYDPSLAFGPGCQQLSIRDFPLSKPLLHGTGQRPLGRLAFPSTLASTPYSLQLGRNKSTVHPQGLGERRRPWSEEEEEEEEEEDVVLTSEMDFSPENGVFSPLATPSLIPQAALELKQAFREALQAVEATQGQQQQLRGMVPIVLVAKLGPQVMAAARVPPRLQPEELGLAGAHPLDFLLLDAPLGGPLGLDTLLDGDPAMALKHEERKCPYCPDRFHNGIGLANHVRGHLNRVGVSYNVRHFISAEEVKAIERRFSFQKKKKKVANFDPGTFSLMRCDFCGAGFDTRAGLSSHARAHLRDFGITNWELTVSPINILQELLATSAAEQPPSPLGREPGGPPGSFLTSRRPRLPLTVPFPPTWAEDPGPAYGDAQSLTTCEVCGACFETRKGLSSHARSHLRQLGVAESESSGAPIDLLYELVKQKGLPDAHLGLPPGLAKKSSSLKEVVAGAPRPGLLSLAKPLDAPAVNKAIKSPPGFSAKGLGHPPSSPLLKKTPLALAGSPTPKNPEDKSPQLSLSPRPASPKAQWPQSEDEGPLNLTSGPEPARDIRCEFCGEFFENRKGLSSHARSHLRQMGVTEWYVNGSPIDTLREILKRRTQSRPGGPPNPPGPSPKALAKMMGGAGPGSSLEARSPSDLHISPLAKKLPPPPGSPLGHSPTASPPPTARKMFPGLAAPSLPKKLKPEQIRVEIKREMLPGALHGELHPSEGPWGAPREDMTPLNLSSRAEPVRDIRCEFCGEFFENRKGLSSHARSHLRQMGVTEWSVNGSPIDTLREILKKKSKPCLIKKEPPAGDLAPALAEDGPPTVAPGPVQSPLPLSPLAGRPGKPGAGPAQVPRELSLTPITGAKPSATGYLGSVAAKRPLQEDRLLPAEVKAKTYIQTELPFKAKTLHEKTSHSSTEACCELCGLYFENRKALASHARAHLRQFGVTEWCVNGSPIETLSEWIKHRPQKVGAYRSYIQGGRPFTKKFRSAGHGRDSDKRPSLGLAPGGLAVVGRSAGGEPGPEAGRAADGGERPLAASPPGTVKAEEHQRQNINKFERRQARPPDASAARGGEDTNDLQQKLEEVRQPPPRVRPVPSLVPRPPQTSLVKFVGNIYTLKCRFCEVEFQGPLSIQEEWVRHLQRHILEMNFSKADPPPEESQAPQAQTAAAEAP
T1 sequence (Q96SW2 whole entry): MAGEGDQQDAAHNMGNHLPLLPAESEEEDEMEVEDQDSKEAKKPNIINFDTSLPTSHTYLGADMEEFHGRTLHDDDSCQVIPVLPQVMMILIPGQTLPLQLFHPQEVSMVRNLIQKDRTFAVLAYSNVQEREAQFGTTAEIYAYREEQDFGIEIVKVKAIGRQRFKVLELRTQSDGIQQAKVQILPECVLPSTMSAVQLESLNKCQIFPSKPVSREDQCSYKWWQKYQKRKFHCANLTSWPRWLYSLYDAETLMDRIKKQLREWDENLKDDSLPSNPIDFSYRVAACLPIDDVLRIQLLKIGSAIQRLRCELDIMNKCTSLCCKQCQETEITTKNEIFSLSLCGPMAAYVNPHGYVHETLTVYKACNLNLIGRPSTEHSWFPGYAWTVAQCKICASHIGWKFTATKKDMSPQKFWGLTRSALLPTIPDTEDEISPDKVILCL
T1 sequence (Q16531 whole entry partner): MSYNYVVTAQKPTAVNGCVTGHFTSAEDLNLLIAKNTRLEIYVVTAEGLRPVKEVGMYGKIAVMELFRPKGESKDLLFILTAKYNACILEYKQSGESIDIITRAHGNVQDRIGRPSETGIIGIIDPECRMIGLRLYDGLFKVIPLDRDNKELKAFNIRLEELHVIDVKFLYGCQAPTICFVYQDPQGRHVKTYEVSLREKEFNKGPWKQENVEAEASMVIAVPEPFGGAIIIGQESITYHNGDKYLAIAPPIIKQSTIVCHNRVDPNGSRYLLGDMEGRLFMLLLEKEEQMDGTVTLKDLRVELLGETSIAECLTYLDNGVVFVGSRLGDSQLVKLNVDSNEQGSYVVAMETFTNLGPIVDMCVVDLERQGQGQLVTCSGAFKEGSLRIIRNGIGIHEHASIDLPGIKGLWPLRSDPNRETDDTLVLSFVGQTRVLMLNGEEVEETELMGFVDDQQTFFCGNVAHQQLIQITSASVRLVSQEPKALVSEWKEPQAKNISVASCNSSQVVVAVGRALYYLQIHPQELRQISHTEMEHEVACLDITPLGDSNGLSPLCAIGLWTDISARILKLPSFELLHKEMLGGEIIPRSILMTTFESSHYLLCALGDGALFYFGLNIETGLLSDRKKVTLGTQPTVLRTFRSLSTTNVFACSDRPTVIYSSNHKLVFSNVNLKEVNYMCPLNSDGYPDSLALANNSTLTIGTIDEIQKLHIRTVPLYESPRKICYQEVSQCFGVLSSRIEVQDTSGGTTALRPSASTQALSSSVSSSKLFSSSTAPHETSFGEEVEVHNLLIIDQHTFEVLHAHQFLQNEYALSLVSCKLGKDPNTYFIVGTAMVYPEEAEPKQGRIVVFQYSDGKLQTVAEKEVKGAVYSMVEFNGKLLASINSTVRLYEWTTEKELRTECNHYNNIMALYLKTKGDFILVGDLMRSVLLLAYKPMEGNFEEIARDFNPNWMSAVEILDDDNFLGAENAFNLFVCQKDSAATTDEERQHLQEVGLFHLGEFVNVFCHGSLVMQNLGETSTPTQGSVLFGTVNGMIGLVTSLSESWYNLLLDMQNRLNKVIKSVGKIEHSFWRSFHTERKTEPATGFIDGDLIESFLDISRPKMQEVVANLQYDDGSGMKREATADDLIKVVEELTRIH

With `O=C1CCC(N2Cc3cc(O[C@@H]4CCCN(CC5COC5)C4)ccc3C2=O)C(=O)N1` (stereo partly drawn) [Example 4, 3-(5-(((R)-1-(oxetan-3-ylmethyl)piperidin-3-yl)oxy)-1-oxoisoindolin-2-yl)piperidine-2,6-dione], the remaining activity at 25 µM under setting [1] came out at 64.4%. Also, under setting [2], the Dmax at 25 µM was 35.6%. Moreover, under setting [3], the DC50 came out at 110 nM.
For `O=C1CCC(N2Cc3cc(O[C@@H]4CCCN(CC5CCC(F)(F)CC5)C4)ccc3C2=O)C(=O)N1` (stereo partly drawn) [Example 5, 3-(5-(((R)-1-((4,4-difluorocyclohexyl)methyl)piperidin-3-yl)oxy)-1-oxoisoindolin-2-yl)piperidine-2,6-dione] the same measures were 77.3%, 22.7% and 55 nM.
For `O=C1CCC(N2Cc3cc(O[C@@H]4CCCN(CC5CCCCC5)C4)ccc3C2=O)C(=O)N1` (stereo partly drawn) [Example 6, 3-(5-(((R)-1-(cyclohexylmethyl)piperidin-3-yl)oxy)-1-oxoisoindolin-2-yl)piperidine-2,6-dione] the same measures were 86.7%, 13.3% and 31 nM.
For `O=C1CCC(N2Cc3cc(O[C@@H]4CCCN(CC5CCC5)C4)ccc3C2=O)C(=O)N1` (stereo partly drawn) [Example 7, 3-(5-(((R)-1-(cyclobutylmethyl)piperidin-3-yl)oxy)-1-oxoisoindolin-2-yl)piperidine-2,6-dione] the same measures were 38.9%, 61.1% and 1.1 nM.
In the case of `CCCN1CCC[C@@H](Oc2ccc3c(c2)CN(C2CCC(=O)NC2=O)C3=O)C1` (stereo partly drawn) [Example 8, 3-(1-oxo-5-(((R)-1-propylpiperidin-3-yl)oxy)isoindolin-2-yl)piperidine-2,6-dione], the remaining activity at 25 µM under setting [1] stood at 33%. The Dmax at 25 µM under setting [2] was found to be 67%. Besides, under setting [3], the DC50 was found to be 28 nM.
With `CC(C)N1CCC[C@@H](Oc2ccc3c(c2)CN(C2CCC(=O)NC2=O)C3=O)C1` (stereo partly drawn) [Example 9, 3-(5-(((R)-1-isopropylpiperidin-3-yl)oxy)-1-oxoisoindolin-2-yl)piperidine-2,6-dione], the Dmax (HEK-293T, read-out: % degradation of WIZ (100 − Amax), 100 − Amax) is 71.5%. For the same compound, under “HEK-293T, read-out: WIZ Amax, DMSO-normalized, curve-fitted percentage of WIZ-HiBit remaining at 25 uM”, the remaining activity at 25 µM was found to be 28.5%. Besides, the DC50 under setting [3] stood at 4.2 nM.
On to `O=C1CCC(N2Cc3cc(O[C@@H]4CCCN(C5CCOCC5)C4)ccc3C2=O)C(=O)N1` (stereo partly drawn) [Example 10, 3-(1-oxo-5-(((R)-1-(tetrahydro-2H-pyran-4-yl)piperidin-3-yl)oxy)isoindolin-2-yl)piperidine-2,6-dione], for which the remaining activity at 25 µM under setting [1] was 45.5%. Moreover, under setting [2], the Dmax at 25 µM was 54.5%. The DC50 under setting [3] worked out at 33 nM.
Regarding `O=C1CCC(N2Cc3cc(O[C@@H]4CCCN(C5CC6(COC6)C5)C4)ccc3C2=O)C(=O)N1` (stereo partly drawn) [Example 11, 3-(5-(((R)-1-(2-oxaspiro[3.3]heptan-6-yl)piperidin-3-yl)oxy)-1-oxoisoindolin-2-yl)piperidine-2,6-dione], under setting [1], the remaining activity at 25 µM worked out at 56.4%. Besides, the Dmax at 25 µM under setting [2] was determined as 43.6%. In addition, the DC50 under setting [3] came to 110 nM.
For `O=C1CCC(N2Cc3cc(O[C@@H]4CCCN(C5COC5)C4)ccc3C2=O)C(=O)N1` (stereo partly drawn) [Example 12, 3-(5-(((R)-1-(oxetan-3-yl)piperidin-3-yl)oxy)-1-oxoisoindolin-2-yl)piperidine-2,6-dione] the same measures were 68.5%, 31.5% and 130 nM.
Turning to `CCn1cc(CN2CCC[C@@H](Oc3ccc4c(c3)CN(C3CCC(=O)NC3=O)C4=O)C2)cn1` (stereo partly drawn) [Example 14, 3-(5-(((R)-1-((1-ethyl-1H-pyrazol-4-yl)methyl)piperidin-3-yl)oxy)-1-oxoisoindolin-2-yl)piperidine-2,6-dione], the Dmax under setting [4] turned out to be 59.3%. In addition, the remaining activity at 25 µM (HEK-293T, read-out: WIZ Amax) turned out to be 40.7%. Besides, the DC50 under setting [5] came to 57 nM.
With `CCN1CCC2(CC2)[C@@H](Oc2ccc3c(c2)CN(C2CCC(=O)NC2=O)C3=O)C1` (stereo partly drawn) [Example 15, 3-(5-(((R)-6-ethyl-6-azaspiro[2.5]octan-4-yl)oxy)-1-oxoisoindolin-2-yl)piperidine-2,6-dione], the Dmax under setting [4] was found to be 80%. Further, the remaining activity at 25 µM (HEK-293T, read-out: WIZ Amax) was 20%. Under setting [3], the DC50 stood at 8.4 nM.
For the compound `CC(C)CN1CCC2(CC2)[C@@H](Oc2ccc3c(c2)CN(C2CCC(=O)NC2=O)C3=O)C1` (stereo partly drawn) [Example 16, 3-(5-(((R)-6-isobutyl-6-azaspiro[2.5]octan-4-yl)oxy)-1-oxoisoindolin-2-yl)piperidine-2,6-dione], the remaining activity at 25 µM under setting [1] stood at 40.9%. The Dmax at 25 µM under setting [2] turned out to be 59.1%. For the same compound, under setting [3], the DC50 was 2.5 nM.
For `CC[C@H](C)N1CCC2(CC2)[C@@H](Oc2ccc3c(c2)CN(C2CCC(=O)NC2=O)C3=O)C1` (stereo partly drawn) [Example 17, 3-(5-(((R)-6-((S)-sec-butyl)-6-azaspiro[2.5]octan-4-yl)oxy)-1-oxoisoindolin-2-yl)piperidine-2,6-dione] the same measures were 27.8%, 72.2% and 14 nM.
Turning to `CCN1C[C@H](Oc2ccc3c(c2)CN(C2CCC(=O)NC2=O)C3=O)CC[C@H]1C` (stereo partly drawn) [Example 23, 3-(5-(((3R,6R)-1-ethyl-6-methylpiperidin-3-yl)oxy)-1-oxoisoindolin-2-yl)piperidine-2,6-dione], the Dmax under setting [4] was 57.7%. Besides, for the setting “HEK-293T, read-out: WIZ Amax”, the remaining activity at 25 µM turned out to be 42.3%. In addition, the DC50 under setting [5] came out at 30 nM.
For the compound `CC#CCN1CCC[C@@H](Oc2ccc3c(c2)CN(C2CCC(=O)NC2=O)C3=O)C1` (stereo partly drawn) [Example 24, 3-(5-(((R)-1-(but-2-yn-1-yl)piperidin-3-yl)oxy)-1-oxoisoindolin-2-yl)piperidine-2,6-dione], under setting [1], the remaining activity at 25 µM worked out at 47.3%. Further, under setting [2], the Dmax at 25 µM turned out to be 52.7%. Moreover, under setting [3], the DC50 worked out at 10 nM.
Turning to `O=C1CCC(N2Cc3cc(O[C@@H]4CCCN(CC#CC5CC5)C4)ccc3C2=O)C(=O)N1` (stereo partly drawn) [Example 25, 3-(5-(((R)-1-(3-cyclopropylprop-2-yn-1-yl)piperidin-3-yl)oxy)-1-oxoisoindolin-2-yl)piperidine-2,6-dione], under setting [1], the remaining activity at 25 µM came to 50.2%. Besides, the Dmax at 25 µM under setting [2] was 49.8%. Further, the DC50 under setting [3] amounted to 7.5 nM.
Consider `CCO[C@H]1C[C@@H](N2CCC[C@@H](Oc3ccc4c(c3)CN(C3CCC(=O)NC3=O)C4=O)C2)C1` (stereo partly drawn) [Example 26, 3-(5-(((R)-1-((1s,3S)-3-ethoxycyclobutyl)piperidin-3-yl)oxy)-1-oxoisoindolin-2-yl)piperidine-2,6-dione], for which the remaining activity at 25 µM under setting [1] turned out to be 58.9%. The Dmax at 25 µM under setting [2] was 41.1%. For the same compound, the DC50 under setting [3] was found to be 21 nM.
With `CO[C@H]1C[C@H](CN2CCC[C@@H](Oc3ccc4c(c3)CN(C3CCC(=O)NC3=O)C4=O)C2)C1` (stereo partly drawn) [Example 27, 3-(5-(((R)-1-(((1r,3R)-3-methoxycyclobutyl)methyl)piperidin-3-yl)oxy)-1-oxoisoindolin-2-yl)piperidine-2,6-dione], the remaining activity at 25 µM under setting [1] worked out at 60.3%. In addition, the Dmax at 25 µM under setting [2] was found to be 39.7%. Besides, under setting [3], the DC50 was 130 nM.
For `O=C1CCC(N2Cc3cc(O[C@@H]4CCCN(C5CC6(CCOCC6)C5)C4)ccc3C2=O)C(=O)N1` (stereo partly drawn) [Example 28, 3-(5-(((R)-1-(7-oxaspiro[3.5]nonan-2-yl)piperidin-3-yl)oxy)-1-oxoisoindolin-2-yl)piperidine-2,6-dione] the same measures were 67.1%, 32.9% and 84 nM.
For `CO[C@H]1CC[C@H](CN2CCC[C@@H](Oc3ccc4c(c3)CN(C3CCC(=O)NC3=O)C4=O)C2)CC1` (stereo partly drawn) [Example 30, 3-(5-(((R)-1-(((1r,4R)-4-methoxycyclohexyl)methyl)piperidin-3-yl)oxy)-1-oxoisoindolin-2-yl)piperidine-2,6-dione], under setting [1], the remaining activity at 25 µM came to 70.8%. Besides, under setting [2], the Dmax at 25 µM was 29.2%. Also, the DC50 under setting [3] was 79 nM.
